Data set [1] has as its system PC-3. As to the kind of experiment: Inhibition of PIP5K1alpha protein expression in human PC3 cells at 50 nM incubated for 48 hrs by immunoblot analysis. The format is functional, cell-based.
In data set [2] the test system is LNCaP. As to the kind of experiment: Inhibition of PSA protein expression in human LNCAP cells at 50 nM incubated for 48 hrs by immunoblot analysis. The format is functional, cell-based.
The test system of data set [3] is PC-3. As to the kind of experiment: Induction of apoptosis in human PC3 cells assessed as viable cells at 100 nM incubated for 48 hrs by Annexin-/7-AAD staining based FACS analysis (reference value: 94.31%). The format is functional. As to conditions: PC-3, 48 h, read-out: Activity. For orientation: Flow cytometry measures light scatter and fluorescence of single cells or particles in a stream.

Data set [4] has as its system PC-3. As to the kind of experiment: Induction of morphological changes in human PC3 cells assessed as changes in morphology at 100 nM incubated for 48 hrs by live cell imaging system based assay. It is filed as functional.
Data set [5] has as its system LNCaP. As to the kind of experiment: Inhibition of PIP5K1alpha protein expression in human LNCAP cells assessed as reduction in AKT phosphorylation at Ser473 residues at 50 nM incubated for 48 hrs by immunoblot analysis relative to control. The format is functional, cell-based.
The subject of data set [6] is PC-3. As to the kind of experiment: Induction of apoptosis in human PC3 cells assessed as late apoptotic cells at 100 nM incubated for 48 hrs by Annexin-/7-AAD staining based FACS analysis (reference value: 2.83%). It is filed as functional.
The test system of data set [7] is LNCaP. As to the kind of experiment: Inhibition of AR protein expression in human LNCAP cells at 50 nM incubated for 48 hrs by immunoblot analysis. The format is functional, cell-based. (In general: Immunoblotting shows a protein as a band on a membrane.)
The subject of data set [8] is PC-3. As to the kind of experiment: Inhibition of PIP5K1alpha protein expression in human PC3 cells assessed as reduction in FAK phosphorylation incubated for 48 hrs by immunoblot analysis relative to control. It is filed as functional, cell-based.
Data set [9] has as its system PC-3. As to the kind of experiment: Antitumor activity against human PC3 cells xenografted in mouse assessed as reduction in volume at 10 mg/kg dosed every second day starting from day 0 and ending on day 20 relative to control. It is filed as functional, organism-based.
Data set [10] has as its system PC-3. As to the kind of experiment: Induction of apoptosis in human PC3 cells assessed as necrotic cells at 100 nM incubated for 48 hrs by Annexin-/7-AAD staining based FACS analysis (reference value: 0.32%). It is filed as functional.
In data set [11] the test system is LNCaP. As to the kind of experiment: Effect on CREB phosphorylation in human LNCAP cells at 50 nM incubated for 48 hrs by immunoblot analysis. The format is functional, cell-based.
The subject of data set [12] is PC-3. As to the kind of experiment: Induction of morphological changes in human PC3 cells assessed as reduction in cell size at 100 nM incubated for 48 hrs by live cell imaging system based assay. The format is functional.
A short description of data set [13]: Toxicity in mouse xenografted with human PC3 cells at 10 mg/kg dosed every second day starting from day 0 and ending on day 20 relative to control. It is filed as organism-based. To be noted: in vivo. Background: In xenograft studies the graft and the host belong to different species.
Data set [14] concerns PC-3. As to the kind of experiment: Induction of apoptosis in human PC3 cells assessed as early apoptotic cells at 100 nM incubated for 48 hrs by Annexin-/7-AAD staining based FACS analysis (reference value: 2.53%). It is filed as functional.
The subject of data set [15] is PC-3. As to the kind of experiment: Inhibition of PIP5K1alpha protein expression in human PC3 cells assessed as reduction in AKT phosphorylation at Ser473 residues at 100 nM incubated for 48 hrs by immunoblot analysis relative to control. The format is functional, cell-based.
The test system of data set [16] is LNCaP. As to the kind of experiment: Inhibition of PIP5K1alpha protein expression in human LNCAP cells assessed as reduction in AKT phosphorylation at Ser473 residues at 20 uM incubated for 48 hrs by immunoblot analysis relative to control. The format is functional.
For data set [17], the system named is LNCaP. As to the kind of experiment: Effect on CREB phosphorylation in human LNCAP cells at 20 uM incubated for 48 hrs by immunoblot analysis. It is filed as functional, cell-based.
Data set [18] concerns PC-3. As to the kind of experiment: Inhibition of PIP5K1alpha protein expression in human PC3 cells assessed as reduction in AKT phosphorylation at Ser473 residues at 50 uM incubated for 48 hrs by immunoblot analysis relative to control. It is filed as functional, cell-based.

The results in this text go back to ChEMBL document CHEMBL4419175, “Compositions for treatment, diagnosis and prognosis of diseases” (2016).

Active and inactive are the calls of the source. The calls are words filed in the database; no cut-off is given here.

Turning to `CC(=O)O[C@@]12CO[C@@H]1C[C@H](O)[C@@]1(C)C(=O)[C@H](O)C3=C(C)[C@@H](OC(=O)[C@H](O)[C@@H](NC(=O)OC(C)(C)C)c4ccccc4)C[C@@](O)([C@@H](OC(=O)c4ccccc4)[C@H]21)C3(C)C` [DOCETAXEL ANHYDROUS], the inhibition result in data set [1], in [2], in [5], in data set [7], in [8] and in data set [15] was “inactive” each time. Moreover, the viability at 0.1 µM in data set [3] was determined as 89.8%. The result in data set [4], in data set [9] and in data set [12] was Active. Moreover, the Activity in [6] is recorded as 6.36%; in data set [10] it was 1.15%; in data set [13], “Toxic”; in [14], 2.73%. The outcome in data set [11] was inactive.

For the compound `COc1cc([C@@H]2c3cc4c(cc3[C@@H](O[C@@H]3O[C@@H]5CO[C@@H](C)O[C@H]5[C@H](O)[C@H]3O)[C@H]3COC(=O)[C@H]23)OCO4)cc(OC)c1O`, the inhibition result in data set [16] and in data set [18] was “inactive” throughout. Besides, the result in [17] was inactive.

On to `CN1CC(=O)N2[C@H](c3ccc4c(c3)OCO4)c3[nH]c4ccccc4c3C[C@@H]2C1=O`, for which the inhibition entry in [16] and in data set [18] was “inactive” in each case. Further, in data set [17], the result was inactive.
